{"source": "patent US20060199866A1", "about": "“Combination of desoxypeganine and mecamylanine for the treatment of alcohol abuse” (priority 2003, published 2006)", "key": {"female AA rats": {"test_system": "female AA rats", "assay": "Reduction of alcohol consumption and alcohol preference in alcohol-preferring AA rats (free choice between water and 10% v/v ethanol)", "format": "in vivo, rat", "conditions": "for Alcohol solution consumed: 10% aqueous ethanol", "source_text": "The “AA” strain of rats, bred in Finland, has a genetically determined preference for alcohol, which means that even without pre-treatment with alcohol the animals, when given free choice, prefer alcohol-containing liquids, to alcohol-free liquids to satisfy their fluid requirement. This strain has therefore been used in numerous studies on the pharmacology of alcohol and is extremely well characterized.\nFemale AA rats (tested for alcohol preference and made available by the Public Health Institute in Helsinki) were housed individually and had free access to standard feed (Altromin 1324 granulate), the ambient temperature was 24±1° C. and the light-dark change was 12/12 hours (the dark period lasting from 6 p.m. to 6 a.m. Each cage contained two identical drinking bottles, of which one contained pure water and the other contained aqueous ethanol (10% v/v). During the 12-hour dark period the animals had access to the drinking bottles and during this period had free choice between the two solutions. To prevent the animals from becoming accustomed to a particular position in the cage, the positions of the bottles were changed daily. Prior to start of the tests, the animals were granted an adaptation phase until a largely constant alcohol and water consumption was ensured.\nDeoxypeganine hydrochloride (called “DOP” in the following) was obtained from the Institute for the Pharmacology of Plants (Taschkent, Usbekistan) and supplied by the firm of LTS Lohmann Therapie-Systeme (Andemach, Germany) after checking for identity and purity. Mecamylamine was obtained as a commercial preparation from Sigma-Aldrich GmbH (Munich).\nTreatment of the test animals always took place immediately prior to the start of the dark period. Mecamylamine was dissolved in 0.9% aqueous saline and a volume of 5 ml/kg body weight was administered by intraperitoneal injection. DOP was applied as an aqueous solution with a volume of 10 ml/kg by a probang.\nIn the case of combination treatments, this administration took place within a period of less than 10 minutes. Two treatment-free days were always interposed prior to and following the treatment days.\nThe parameters recorded were consumption of alcohol, consumption of water and consumption of feed (each in grams), as well as alcohol preference, calculated using the formula: [formula]\nThe target parameters were in each case traced during the 12 hours of the dark period following treatment, intermediate results were recorded after the first 4 hours and final results after 12 hours. Statistical evaluation of the test data was performed using the t-test for dependent values. The results in respect of consumption of alcohol and alcohol preference are summarized in FIGS. 1 and 2 as well as in Tables 1 and 2."}, "healthy probands": {"test_system": "healthy probands", "conditions": "administered two hours prior to consumption of alcoholic beverages; cited from earlier work"}, "[1]": {"conditions": "cited from earlier work"}, "[2]": {"test_system": "extracellular dopamine concentration in the nucleus accumbens", "conditions": "nucleus accumbens of the rat; baseline dopamine release not impaired; cited from earlier work"}, "monoamine oxidase A": {"target": "T1, monoamine oxidase A (Homo sapiens, UniProt P21397)", "T1 sequence (P21397 1-527)": "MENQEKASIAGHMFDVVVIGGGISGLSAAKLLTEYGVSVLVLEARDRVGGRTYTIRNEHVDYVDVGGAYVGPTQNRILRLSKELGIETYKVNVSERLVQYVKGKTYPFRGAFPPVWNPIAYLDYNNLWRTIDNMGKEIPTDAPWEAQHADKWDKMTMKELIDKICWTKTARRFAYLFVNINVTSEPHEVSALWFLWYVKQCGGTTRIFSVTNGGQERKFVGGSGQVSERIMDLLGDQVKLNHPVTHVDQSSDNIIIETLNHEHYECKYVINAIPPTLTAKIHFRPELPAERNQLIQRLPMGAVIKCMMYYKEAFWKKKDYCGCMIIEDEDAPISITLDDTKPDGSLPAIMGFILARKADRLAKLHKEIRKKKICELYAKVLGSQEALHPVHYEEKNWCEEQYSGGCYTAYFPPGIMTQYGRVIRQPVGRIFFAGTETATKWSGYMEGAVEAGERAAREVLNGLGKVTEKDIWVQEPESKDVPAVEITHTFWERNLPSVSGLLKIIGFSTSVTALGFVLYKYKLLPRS", "conditions": "cited from earlier work"}, "[3]": {"test_system": "neuronal nicotinic acetylcholine receptors (NACHRs)", "conditions": "in pharmacologically relevant concentrations; cited from earlier work"}, "[4]": {"conditions": "Trial 2, Mec 1 mg/kg i.p., After 4 hours"}, "[5]": {"conditions": "Trial 2, Mec 1 mg/kg i.p., After 8 hours (subsequent eight hours)"}, "[6]": {"conditions": "Trial 2, Mec 1 mg/kg i.p., Total (12 hours)"}, "[7]": {"conditions": "Trial 1, DOP 20 mg/kg p.o., After 4 hours"}, "[8]": {"conditions": "Trial 1, DOP 20 mg/kg p.o., After 8 hours (subsequent eight hours)"}, "[9]": {"conditions": "Trial 1, DOP 20 mg/kg p.o., Total (12 hours)"}, "[10]": {"conditions": "Trial 2, DOP 20 mg/kg p.o., After 4 hours"}, "[11]": {"conditions": "Trial 2, DOP 20 mg/kg p.o., After 8 hours (subsequent eight hours)"}, "[12]": {"conditions": "Trial 2, DOP 20 mg/kg p.o., Total (12 hours)"}}}
{"compound": "CNC1(C)C2CCC(C2)C1(C)C", "note": "(racemic) [Mec, reference compound]", "values": [{"measurement": "Alcohol solution consumed", "setting": "female AA rats; [4]", "result": "5.4 ± 0.5", "unit": "gram"}, {"measurement": "Alcohol solution consumed", "setting": "female AA rats; [5]", "result": "10.1 ± 0.4", "unit": "gram"}, {"measurement": "Alcohol solution consumed", "setting": "female AA rats; [6]", "result": "15.5 ± 0.5", "unit": "gram"}, {"measurement": "Effect on consumption of alcohol and alcohol preference", "setting": "female AA rats; Mecamylamine 1 mg/kg i.p. administered singly", "result": "no effect"}, {"measurement": "Effect on consumption of alcohol and alcohol preference", "setting": "female AA rats; Mecamylamine 1 mg/kg i.p. combined with DOP 20 mg/kg p.o.", "result": "potentiated the effect of DOP on both parameters"}, {"measurement": "Alcohol preference", "setting": "female AA rats; [4]", "result": "85.3 ± 4.2", "unit": "%"}, {"measurement": "Alcohol preference", "setting": "female AA rats; [5]", "result": "87.8 ± 3.1", "unit": "%"}, {"measurement": "Alcohol preference", "setting": "female AA rats; [6]", "result": "86.3 ± 2.6", "unit": "%"}, {"measurement": "Effect on consumption of alcohol and alcohol preference", "setting": "female AA rats; mecamylamine 0.5 mg/kg i.p. combined with DOP 20 mg/kg p.o.", "result": "without effect with regard to alcohol"}, {"measurement": "Effect on consumption of alcohol and alcohol preference", "setting": "female AA rats; mecamylamine 0.75 mg/kg i.p. combined with DOP 20 mg/kg p.o.", "result": "without effect with regard to alcohol"}, {"measurement": "Effect on consumption of alcohol and alcohol preference", "setting": "female AA rats; mecamylamine dosage increased to 1.5 mg/kg i.p., combined with DOP 20 mg/kg p.o.", "result": "potentiating effect could not be increased further"}, {"measurement": "Effect on the centrally stimulating psychotropic effect of alcohol", "setting": "healthy probands", "result": "reduced the centrally stimulating psychotropic effect"}, {"measurement": "Oral bioavailability", "setting": "[1]", "result": "~100", "unit": "%"}, {"measurement": "Blockade of alcohol-induced increase in extracellular dopamine concentration", "setting": "[2]", "result": "completely blocks"}]}
{"compound": "O=C1CC[C@@]2(O)[C@H]3Cc4ccc(O)c5c4[C@@]2(CCN3CC2CC2)[C@H]1O5", "note": "[naltrexone]", "values": [{"measurement": "Oral bioavailability", "setting": "[1]", "result": "approx. 5%"}]}
{"compound": "c1ccc2c(c1)CN1CCCC1=N2", "note": "[DOP, 1,2,3,9-tetrahydropyrrollo[2,1-b]chinazoline]", "values": [{"measurement": "Inhibition of monoamine oxidase A", "setting": "monoamine oxidase A", "result": "inhibits monoamine oxidase A"}, {"measurement": "Alcohol solution consumed", "setting": "female AA rats; [7]", "result": "5.2 ± 0.6", "unit": "gram"}, {"measurement": "Alcohol solution consumed", "setting": "female AA rats; [8]", "result": "10.2 ± 0.6", "unit": "gram"}, {"measurement": "Alcohol solution consumed", "setting": "female AA rats; [9]", "result": "15.4 ± 1.1", "unit": "gram"}, {"measurement": "Alcohol solution consumed", "setting": "female AA rats; [10]", "result": "5.8 ± 0.6", "unit": "gram"}, {"measurement": "Alcohol solution consumed", "setting": "female AA rats; [11]", "result": "10.7 ± 0.5", "unit": "gram"}, {"measurement": "Alcohol solution consumed", "setting": "female AA rats; [12]", "result": "16.6 ± 0.6", "unit": "gram"}, {"measurement": "Effect on consumption of alcohol and alcohol preference", "setting": "female AA rats; DOP 20 mg/kg p.o., preferably within the first 4 hours after administration", "result": "lowered the consumption of alcohol and alcohol preference"}, {"measurement": "Alcohol preference", "setting": "female AA rats; [7]", "result": "57.4 ± 7.1", "unit": "%"}, {"measurement": "Alcohol preference", "setting": "female AA rats; [8]", "result": "82.0 ± 4.0", "unit": "%"}, {"measurement": "Alcohol preference", "setting": "female AA rats; [9]", "result": "70.5 ± 4.5", "unit": "%"}, {"measurement": "Alcohol preference", "setting": "female AA rats; [10]", "result": "55.6 ± 7.6", "unit": "%"}, {"measurement": "Alcohol preference", "setting": "female AA rats; [11]", "result": "88.0 ± 2.1", "unit": "%"}, {"measurement": "Alcohol preference", "setting": "female AA rats; [12]", "result": "72.7 ± 4.3", "unit": "%"}, {"measurement": "Binding to NACHRs", "setting": "[3]", "result": "does not bind to NACHRs"}]}
